Patent publication US7585839B2, “Medical uses of intercellular communication facilitating compounds” (Zealand Pharma A/S, priority 2001, dated 2009)

Tests used:
human osteoblast [1] = details: human osteoblast cultures and rat osteosarcoma cell lines; conference abstract; cited from earlier work
human osteoblast [2] = assay: Lucifer Yellow microinjection dye transfer, human osteoblasts; assay type: cell-based; details: 48 hours hypoxia 3-6% O2; 10 minutes incubation; 7 cells before
Procedure: (§1) Human osteblast cells (hOB): Cells were isolated from human bone marrow obtained by puncture of the posterior iliac spine of healthy volunteers (aged 20-36): 10-15 ml marrow material was collected in 15 ml PBS+Ca,Mg (Life Technologies, Cat.No. 14040) with 100 U/ml Heparin (Sigma, Cat.No. H-3149). The mononuclear fraction of the marrow was isolated on a Lymphoprep gradient (Nycomed Pharma, Cat.No. 1001967), by centrifugation at 2200 rpm for 30 min. After harvesting, the mononuclear fraction was washed once with culture medium and centrifuged at 1800 rpm for 10 min. Subsequently cells were counted and plated in culture medium at 8×10^6 cells/100 mm dish. hOB medium (all reagents obtained from Life Technologies): MEM w/o Phenol Red w/Glutamax (Cat.No. 041-93013) supplemented with 10% heat inactivated fetal calf serum (Cat.No. 10106) and 0.1% Penicillin/Streptomycin (Cat.No. 15140). Medium was changed the following day and the cells were cultured at 37° C. in 5% CO2 with medium change every 7 days. After 3-4 weeks of culture the cells had reached 70% confluence. The medium was then supplemented with 100 nM Dexamethasone (Sigma, Cat.No. D-4902) for 7 days. Cells were then plated for video imaging experiments: a 25 mm #1 glass coverslip was placed in a 35 mm dish (or each well of a 6-well multidish), cells were plated at 2.5×10^5 cells/coverslip and cultured for 2-3 days before use. […]

[3] = test system: calcium-induced arrythmias; assay: Calcium-induced arrhythmia model in mice (CaCl2-induced 2nd degree AV-block); assay type: in vivo; details: mouse, in vivo
Procedure: The antiarrhythmic effects of compounds of this invention were tested in an in vivo model of calcium-induced arrythmias according to the model of Lynch et al.^[37]. […]. Commercial solutions of hypnorm and midazolam were diluted 1:1 in distilled water and one part diluted Hypnorm® is mixed with one part diluted midazolam.
The anaesthesia was induced by s.c. administration in a dose of 0.05-0.075 μl/10 gram mouse. An i.v. cannula was inserted into the tail vein. The lead II ECG signal was recorded continuously by positioning of a stainless steel ECG electrodes on the right forelimb and on the left hind limb. The ground electrode was placed on the right hind limb. The signal was amplified (×5.000-10.000) and filtered (0.1-150 Hz) via a Hugo Sachs Electronic model 689 ECG module. The analogue signal was digitised via a 12 bit data acquisition board (Data Translation model DT321) and sampled at 1000 Hz using the Notocord HEM 3.1 software for Windows NT. After a 10-min equilibration period, the test sample of drug was injected into the tail vein. Mice pre-treated with vehicle were tested as a measure of the control level in untreated animals. The injection volume was 100 μl in all experiments. Infusion of CaCl2 (30 mg/ml, 0.1 ml/min≈100 mg/kg/min (calciumchlorid-2-hydrat, Riedel-de Haën, Germany)) was started 3 min after i.v. administration of drug or vehicle.
The time lag to onset of 2nd degree AV-block was determined as the time from the start of CaCl2 infusion until the first arrhythmic event occured. An event of 2nd degree AV-block was defined as intermittent failure of the AV conduction characterised by a P-wave without the concomitant QRS complex.
Responses were expressed relative to the time until 2nd degree AV-block occurred in vehicle treated mice.

[4] = test system: reentry ventricular tachycardia; assay: Ventricular reentry arrhythmias in dogs after coronary artery occlusion; assay type: in vivo, dog; details: after the lowest dose (bolus 0.1 μg/kg; infusion 2 ng/kg/min) i.v.
Procedure: Three dogs were studied in the anesthetized, open chest state to facilitate electrode placement for mapping. α-chloralose was given as a bolus (200 mg/kg) and then a constant infusion at 8 mg/kg/hr (dissolved in polyethylene glycol, MW=200). The femoral vein and artery was cannulated for administration of fluid and drugs and for measurement of ascending aortic pressure, respectively.
The sinus node was clamped and the atrial appendage was paced with a programmable stimulator with constant current outputs at two times diastolic threshold. Pacing rate was ≧200 b/min to control heart rates. […] Late ventricular diastolic threshold was measured during each intervention; the pacing current was four times threshold.
Test sites were chosen along the shaft of 16 pole needles (J. Kassell, Fayetteville, N.C.); each pole completely surrounds the needle shaft to prevent directionality of needle orientation from recording of adjacent Purkinje strands. Six bipolar electrograms (1 mm spacing) were recorded sequentially down the shaft of the needle by amplifying up to 1000 times, filtering from 3-1300 Hz and recording via oscilloscope during atrial pacing. Four intramural electrograms are recorded on each multipolar needle. […] Inter-needle distance measured on epicardium varies over 6-10 mm in dogs weighing 12-16 kg. […]

human osteoblastic cells = assay: Intercellular calcium waves after mechanical stimulation, human osteoblastic cells; assay type: cell-based
Procedure: as §1

Ac-D-Tyr-D-Pro-D-4Hyp-Gly-D-Ala-Gly-NH2 [Compound 2]
hypoxia-induced decrease of intercellular communication (human osteoblast [1]): completely reversed
dye transfer, number of cells (human osteoblast [2]): 9 cells
CaCl2 mice In vivo, % [3]: 65 +/− 7%
inducibility of epicardial reentry VT [4]: no longer inducible
average number of cells in the calcium wave (human osteoblastic cells; after ATP desensitization, 10^−8 mol/l, 10 minutes, 4.5 cells before): 6.2 cells
average number of cells in the calcium wave (human osteoblastic cells; medium without glucose, 10^−8 M, 1.4 cells before): 2.9 cells
